The text below walks through data of ChEMBL document CHEMBL1201862, “PubChem BioAssay data set” (2004).

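Briefly, cells in 96-well plates were exposed to five compound concentrations for 48 h, and endpoints were estimated by linear interpolation. Abbreviation: GI50, concentration required for 50% inhibition of growth.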 Activity calls are given as the source filed them. Rule as the data show it: active = GI50 up to about 1.1 µM and inactive = higher.

Some test systems named below: HCC 2998; OVCAR-5; CAKI-1; NCI-H460; Hs-578T; IGROV-1; MDA-MB-231; Malme-3M; PC-3; K562; M14; HOP-62; UACC-62; COLO 205; U-251; MDA-MB-435; ACHN; RXF 393; SF-539.
Common to all, as to test: growth of human tumour cells (NCI), 48 h

On to `C[C@H](CCc1nc(C#N)c(N)o1)[C@H]1CC[C@H]2[C@@H]3[C@@H](O)CC4C[C@@H](O)CC[C@]4(C)[C@H]3C[C@@H](O)[C@]12C` (stereo not given in full), for which the GI50 in the assay on HCC 2998 is 19.1 µM (inactive); in the assay on OVCAR-5, 23.3 µM (inactive); with CAKI-1, 30.5 µM (inactive); in the assay on NCI-H460, 21.9 µM (inactive); in the assay on Hs-578T, 20.5 µM (inactive); with IGROV-1, 10.2 µM (inactive). Moreover, the GI50 with MDA-MB-231 was 25.6 µM (inactive); with Malme-3M, 7.38 µM (inactive); with PC-3, 9.95 µM (inactive); with K562 it was 23.1 µM (inactive); in the assay with M14, 29 µM (inactive); in the assay on HOP-62 it was 26.5 µM (inactive). The GI50 in the assay on UACC-62 is 10.7 µM (inactive); with COLO 205 it was 18.2 µM (inactive); with U-251 it was 20.7 µM (inactive); in the assay on MDA-MB-435 it was 22 µM (inactive); with ACHN, 26.4 µM (inactive); in the assay with RXF 393, 16 µM (inactive). Further, the GI50 with SF-539 is 17.9 µM (inactive).
As for `O=C1CC(c2ccco2)C2(C(=O)NC(=O)NC2=O)C(c2ccco2)C1` (stereo not given), the GI50 in the assay on HCC 2998, in the assay with OVCAR-5, in the assay on CAKI-1, in the assay with NCI-H460, in the assay with Hs-578T and in the assay with IGROV-1 was > 75 µM (inactive) throughout. Also, the GI50 in the assay with MDA-MB-231, in the assay with Malme-3M, in the assay with PC-3, in the assay on K562, in the assay on M14 and in the assay on HOP-62 was > 75 µM (inactive) each time. Also, the GI50 with UACC-62, in the assay on COLO 205, in the assay on U-251, in the assay on MDA-MB-435, in the assay with ACHN and in the assay with RXF 393 was > 75 µM (inactive) each time. In the assay on SF-539, the GI50 was > 75 µM (inactive).
With `CCCC(c1cc(C(C)(C)C)c(O)cc1C)c1cc(C(C)(C)C)c(O)cc1C`, the GI50 in the assay on HCC 2998 was 1.75 µM (inactive); with OVCAR-5 it was 2.13 µM (inactive); with CAKI-1 it was 4.3 µM (inactive); with NCI-H460, 1.95 µM (inactive); with Hs-578T, 2.79 µM (inactive); with IGROV-1, 4.04 µM (inactive). Besides, the GI50 was 3.56 µM (inactive) in the assay on MDA-MB-231; 3.05 µM (inactive) in the assay with Malme-3M; 3.29 µM (inactive) with PC-3; 2.23 µM (inactive) in the assay on K562; 2.09 µM (inactive) with M14; 3.05 µM (inactive) in the assay on HOP-62. In addition, the GI50 with UACC-62 was 2.09 µM (inactive); in the assay on COLO 205, 2.33 µM (inactive); in the assay on U-251 it was 2.65 µM (inactive); with MDA-MB-435, 2.59 µM (inactive); in the assay on ACHN, 2.67 µM (inactive); with RXF 393, 1.99 µM (inactive). In addition, the GI50 in the assay on SF-539 is 2.39 µM (inactive).
As for `COc1cc(/C=C2\CCC(C)C3C2=NN(C(C)=O)C3c2cc(OC)c(OC)c(OC)c2)cc(OC)c1OC` (stereo not given), the GI50 is > 100 µM (inactive) in the assay with HCC 2998; 10.2 µM (inactive) with OVCAR-5; 14.2 µM (inactive) with CAKI-1; > 100 µM (inactive) in the assay with NCI-H460; 45.8 µM (inactive) with Hs-578T; 3.13 µM (inactive) in the assay on IGROV-1. Besides, the GI50 in the assay on MDA-MB-231 is > 72.9 µM (inactive); in the assay with Malme-3M, 43.6 µM (inactive); in the assay on PC-3, > 100 µM (inactive); with K562 it was > 100 µM (inactive); in the assay on M14, > 100 µM (inactive); with HOP-62, > 59.2 µM (inactive). For the same compound, the GI50 was 38.8 µM (inactive) with UACC-62; > 100 µM (inactive) with COLO 205; > 85.5 µM (inactive) in the assay with U-251; > 100 µM (inactive) in the assay with MDA-MB-435; 25.1 µM (inactive) in the assay on ACHN; 43.5 µM (inactive) in the assay with RXF 393. In the assay with SF-539, the GI50 is > 100 µM (inactive).
Take `OC(CC1CCCCN1)c1ccc2c(c1)oc1ccccc12` (stereo not given): the GI50 in the assay on HCC 2998 was 30.4 µM (inactive); in the assay on OVCAR-5 it was 50.1 µM (inactive); with CAKI-1 it was 52.8 µM (inactive); in the assay with NCI-H460 it was 43.6 µM (inactive); with Hs-578T it was 87.7 µM (inactive); in the assay on IGROV-1, 55.6 µM (inactive). Besides, the GI50 with MDA-MB-231 is > 100 µM (inactive); in the assay on Malme-3M, 38.9 µM (inactive); in the assay with PC-3 it was 71 µM (inactive); in the assay on K562, 39.5 µM (inactive); with M14, 18.8 µM (inactive); in the assay on HOP-62, 91.2 µM (inactive). Besides, the GI50 is 22.6 µM (inactive) in the assay on UACC-62; 19.1 µM (inactive) in the assay on COLO 205; > 100 µM (inactive) with U-251; 42.7 µM (inactive) in the assay on MDA-MB-435; > 100 µM (inactive) with ACHN; 57.3 µM (inactive) in the assay with RXF 393. Also, the GI50 with SF-539 is 46.1 µM (inactive).
As to `CN(C)c1ccc(/C=C/C(=O)c2cc(C(C)(C)C)c(O)c(C(C)(C)C)c2)cc1`, the GI50 is 1.64 µM (inactive) with HCC 2998; 2.99 µM (inactive) in the assay with OVCAR-5; 1.14 µM (inactive) with CAKI-1; 0.82 µM (active) in the assay with NCI-H460; 2.72 µM (inactive) in the assay with Hs-578T; 4.15 µM (inactive) in the assay on IGROV-1. Further, the GI50 with MDA-MB-231 was 2.44 µM (inactive); with Malme-3M it was > 100 µM (inactive); in the assay on PC-3, 1.22 µM (inactive); in the assay with K562, 0.979 µM (active); in the assay with M14 it was 1.15 µM (inactive); in the assay on HOP-62 it was 2.54 µM (inactive). For the same compound, the GI50 with UACC-62 is 0.637 µM (active); in the assay on COLO 205, 0.348 µM (active); with U-251, 0.946 µM (active); in the assay on MDA-MB-435, 0.258 µM (active); in the assay on ACHN it was 1.73 µM (inactive); with RXF 393, 0.204 µM (active). Further, in the assay on SF-539, the GI50 was 0.625 µM (active).
As to `CC1(C)C2C=C(CCN3CCOCC3)CC1C2` (stereo not given), the GI50 in the assay on HCC 2998, in the assay with OVCAR-5, in the assay with CAKI-1, in the assay with NCI-H460, in the assay on Hs-578T and in the assay with IGROV-1 was > 100 µM (inactive) each time. The GI50 in the assay on MDA-MB-231, with Malme-3M, with PC-3, in the assay on K562, in the assay with M14 and in the assay with HOP-62 was > 100 µM (inactive) throughout. Moreover, the GI50 in the assay with UACC-62, in the assay on COLO 205, in the assay on U-251, in the assay on MDA-MB-435, with ACHN and in the assay on RXF 393 was > 100 µM (inactive) in each case. Moreover, the GI50 in the assay with SF-539 is > 100 µM (inactive).
`COC(=O)c1c(O)ccc2c1c1cc3ccccc3cc1n2Cc1cc(OC)cc(OC)c1`: the GI50 in the assay on HCC 2998 was 3.88 µM (inactive); in the assay on OVCAR-5 it was 9.64 µM (inactive); in the assay on CAKI-1, 2.18 µM (inactive); with NCI-H460, 2.57 µM (inactive); in the assay with Hs-578T, 2.45 µM (inactive); with IGROV-1 it was 0.678 µM (active). The GI50 in the assay with MDA-MB-231 is 6.55 µM (inactive); with Malme-3M it was 1.22 µM (inactive); with PC-3, 2.46 µM (inactive); in the assay with K562, 1.96 µM (inactive); in the assay on M14 it was 2.25 µM (inactive); with HOP-62, 3.23 µM (inactive). Moreover, the GI50 is 3.13 µM (inactive) with UACC-62; 10.1 µM (inactive) with COLO 205; 4.45 µM (inactive) with U-251; 0.321 µM (active) in the assay with MDA-MB-435; 1.74 µM (inactive) in the assay on ACHN; 3.96 µM (inactive) with RXF 393. For the same compound, in the assay on SF-539, the GI50 was 1.86 µM (inactive).
`CC(=NNC(=S)Nc1ccccc1)c1cccc(C(C)=NNC(=S)Nc2ccccc2)n1`: the GI50 is 3.64 µM (inactive) in the assay on HCC 2998; > 22 µM (inactive) in the assay with OVCAR-5; 1.79 µM (inactive) with CAKI-1; 2.65 µM (inactive) in the assay with NCI-H460; > 37.8 µM (inactive) in the assay on Hs-578T; 2.08 µM (inactive) with IGROV-1. The GI50 in the assay on MDA-MB-231 is 4.62 µM (inactive); in the assay with Malme-3M it was 4.57 µM (inactive); in the assay with PC-3, 5.21 µM (inactive); with K562, 3.04 µM (inactive); in the assay on M14, 1.97 µM (inactive); in the assay on HOP-62 it was 2.11 µM (inactive). The GI50 in the assay on UACC-62 was 2.43 µM (inactive); in the assay on COLO 205, 2.48 µM (inactive); in the assay with U-251, 4.99 µM (inactive); with MDA-MB-435 it was 8.32 µM (inactive); in the assay on ACHN, 1.23 µM (inactive); in the assay with RXF 393 it was 3.01 µM (inactive). Also, the GI50 in the assay on SF-539 is 1.47 µM (inactive).
`COC(=O)[C@]12CCC(=O)N1[C@H](C(=O)O)Cc1c2[nH]c2ccccc12`: the GI50 in the assay with HCC 2998, in the assay on OVCAR-5, with CAKI-1, with NCI-H460, with Hs-578T and in the assay with IGROV-1 was > 100 µM (inactive) throughout. The GI50 with MDA-MB-231, in the assay on Malme-3M, with PC-3, with K562, in the assay with M14 and with HOP-62 was > 100 µM (inactive) each time. The GI50 in the assay with UACC-62, in the assay on COLO 205, in the assay on U-251, in the assay with MDA-MB-435, in the assay with ACHN and with RXF 393 was > 100 µM (inactive) each time. The GI50 with SF-539 was > 100 µM (inactive).
